# Measurements published in patent publication US20020137929A1, “1 - (3-heterocyclylphenyl) isothiourea, -isourea, -guanidine and -amidine herbicidal agents” (Intellectual Property Department, BASF Aktiengesellschaft, priority 1998, published 2002).
# How the values were obtained:
# MOOVA (Monochoria) = test: Preemergence weed control under flooded paddy conditions; type: in vivo, Monochoria vaginalis; conditions: rated 3-4 weeks after treatment
# Procedure, shortened: (§1)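 Values are visual 0-9 scores against a control for a preemergence application into paddy flood water at about 0.0313 to 0.500 kg/ha. Greenhouse duration was three to four weeks.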
# [1] = test system: IPOHE (Morningglory, Ivyleaf); test: Postemergence herbicidal evaluation; type: in vivo, Ipomoea hederacea; conditions: postemergence
# Procedure, shortened: (§2)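 Scores (0–9) reflect plant stand, vigor, malformation, size, chlorosis and general appearance relative to control, read 4 to 5 weeks after treatment and averaged where tests were repeated. Application: about 0.0156–0.500 kg/ha sprayed at 40 psi onto two-week seedlings.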
# ABUTH (Velvetleaf) = test: Preemergence herbicidal evaluation; type: in vivo, Abutilon theophrasti; conditions: rated 4-5 weeks after treatment
# Procedure, shortened: (§3)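 Greenhouse preemergence test: seed-soil mix sown on ~1 inch soil; aqueous acetone spray at equivalent of ~0.0156–0.500 kg/ha; greenhouse-held and watered; scored 0–9 visually at 4–5 weeks.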
# ORYSAT (Rice, Tebonnet) = test: Preemergence herbicidal evaluation; type: in vivo, Oryza sativa, (L.) Tebonnet; conditions: rated 4-5 weeks after treatment
# Procedure, shortened: as §3
# [2] = test system: TRZAWR (Wheat, Winter, cv Riband); test: Postemergence herbicidal evaluation; type: in vivo, Triticum aestivum; conditions: postemergence
# Procedure, shortened: as §2
# ECHCG (Barnyardgrass) = test: Postemergence herbicidal evaluation; type: in vivo, Echinochloa crus-galli; conditions: postemergence
# Procedure, shortened: as §2
# AMBEL (Ragweed, Common) [3] = test: Postemergence herbicidal evaluation; type: in vivo, Ambrosia artemisifolia; conditions: postemergence
# Procedure, shortened: as §2
# [4] = test system: GLXMAW (Soybean, Williams); test: Preemergence herbicidal evaluation; type: in vivo, Glycine max, (L.) Merr. cv Williams; conditions: rated 4-5 weeks after treatment
# Procedure, shortened: as §3
# AMBEL (Ragweed, Common) [5] = test: Preemergence herbicidal evaluation; type: in vivo, Ambrosia artemisifolia; conditions: rated 4-5 weeks after treatment
# Procedure, shortened: as §3
# [6] = test system: CHEAL (Lambsquarters, Common); test: Preemergence herbicidal evaluation; type: in vivo, Chenopodium album; conditions: rated 4-5 weeks after treatment
# Procedure, shortened: as §3
# [7] = test system: GLXMAW (Soybean, Williams); test: Postemergence herbicidal evaluation; type: in vivo, Glycine max, (L.) Merr. cv Williams; conditions: postemergence
# Procedure, shortened: as §2
# [8] = test system: SAGPY (Arrowhead (Pygmaea)); test: Preemergence weed control under flooded paddy conditions; type: in vivo, Sagittaria pygmaea; conditions: rated 3-4 weeks after treatment
# Procedure, shortened: as §1
# CASOB (Sicklepod) [9] = test: Preemergence herbicidal evaluation; type: in vivo, Cassia obtusifolia; conditions: rated 4-5 weeks after treatment
# Procedure, shortened: as §3
# [10] = test system: CHEAL (Lambsquarters, Common); test: Postemergence herbicidal evaluation; type: in vivo, Chenopodium album; conditions: postemergence
# Procedure, shortened: as §2
# [11] = test system: IPOHE (Morningglory, Ivyleaf); test: Preemergence herbicidal evaluation; type: in vivo, Ipomoea hederacea; conditions: rated 4-5 weeks after treatment
# Procedure, shortened: as §3
# CASOB (Sicklepod) [12] = test: Postemergence herbicidal evaluation; type: in vivo, Cassia obtusifolia; conditions: postemergence
# Procedure, shortened: as §2
compound,measurement,setting,value
"CCOC(=O)CN1C(=O)C(C(=O)OCC)SC1=Nc1cc(-n2c(=O)cc(C(F)(F)F)n(C)c2=O)c(F)cc1Cl (stereo not shown) [Compound 127, 5-Carboxy-2-{{2-chloro-5-[3,6-dihydro-3-methyl-2,6-dioxo-4-(trifluoromethyl)-1(2H)-pyrimidinyl]-4-fluorophenyl}imino}-4-oxo-3-thiazolidineacetic acid, diethyl ester]","herbicidal effect rating, MOOVA",MOOVA (Monochoria); 0.0313 kg/ha,3.0
same,"herbicidal effect rating, MOOVA",MOOVA (Monochoria); 0.0625 kg/ha,3.0
same,"herbicidal effect rating, MOOVA",MOOVA (Monochoria); 0.1250 kg/ha,5.0
same,"herbicidal effect rating, MOOVA",MOOVA (Monochoria); 0.2500 kg/ha,7.0
same,herbicidal rating IPOHE,[1]; rate 0.0156 kg/ha,9.0
same,herbicidal rating IPOHE,[1]; rate 0.0313 kg/ha,9.0
same,herbicidal rating IPOHE,[1]; rate 0.0625 kg/ha,9.0
same,herbicidal rating IPOHE,[1]; rate 0.1250 kg/ha,9.0
same,Preemergence herbicidal rating ABUTH,ABUTH (Velvetleaf); rate 0.0313 kg/ha,7.0
same,Preemergence herbicidal rating ABUTH,ABUTH (Velvetleaf); rate 0.0625 kg/ha,7.0
same,Preemergence herbicidal rating ABUTH,ABUTH (Velvetleaf); rate 0.1250 kg/ha,9.0
same,Preemergence herbicidal rating ABUTH,ABUTH (Velvetleaf); rate 0.2500 kg/ha,9.0
same,Preemergence herbicidal rating ABUTH,ABUTH (Velvetleaf); rate 0.5000 kg/ha,9.0
same,Preemergence herbicidal rating ORYSAT,"ORYSAT (Rice, Tebonnet); rate 0.0313 kg/ha",0.0
same,Preemergence herbicidal rating ORYSAT,"ORYSAT (Rice, Tebonnet); rate 0.0625 kg/ha",0.0
same,Preemergence herbicidal rating ORYSAT,"ORYSAT (Rice, Tebonnet); rate 0.1250 kg/ha",0.0
same,Preemergence herbicidal rating ORYSAT,"ORYSAT (Rice, Tebonnet); rate 0.2500 kg/ha",0.0
same,Preemergence herbicidal rating ORYSAT,"ORYSAT (Rice, Tebonnet); rate 0.5000 kg/ha",3.0
same,herbicidal rating TRZAWR,[2]; rate 0.0156 kg/ha,2.5
same,herbicidal rating TRZAWR,[2]; rate 0.0313 kg/ha,2.5
same,herbicidal rating TRZAWR,[2]; rate 0.0625 kg/ha,3.5
same,herbicidal rating TRZAWR,[2]; rate 0.1250 kg/ha,6.0
same,herbicidal rating ECHCG,ECHCG (Barnyardgrass); rate 0.0156 kg/ha,0.0
same,herbicidal rating ECHCG,ECHCG (Barnyardgrass); rate 0.0313 kg/ha,0.0
same,herbicidal rating ECHCG,ECHCG (Barnyardgrass); rate 0.0625 kg/ha,1.0
same,herbicidal rating ECHCG,ECHCG (Barnyardgrass); rate 0.1250 kg/ha,3.0
same,herbicidal rating AMBEL,"AMBEL (Ragweed, Common) [3]; rate 0.0156 kg/ha",9.0
same,herbicidal rating AMBEL,"AMBEL (Ragweed, Common) [3]; rate 0.0313 kg/ha",9.0
same,herbicidal rating AMBEL,"AMBEL (Ragweed, Common) [3]; rate 0.0625 kg/ha",9.0
same,herbicidal rating AMBEL,"AMBEL (Ragweed, Common) [3]; rate 0.1250 kg/ha",9.0
same,Preemergence herbicidal rating GLXMAW,[4]; rate 0.0313 kg/ha,0.0
same,Preemergence herbicidal rating GLXMAW,[4]; rate 0.0625 kg/ha,0.0
same,Preemergence herbicidal rating GLXMAW,[4]; rate 0.1250 kg/ha,0.0
same,Preemergence herbicidal rating GLXMAW,[4]; rate 0.2500 kg/ha,4.0
same,Preemergence herbicidal rating GLXMAW,[4]; rate 0.5000 kg/ha,4.0
same,Preemergence herbicidal rating AMBEL,"AMBEL (Ragweed, Common) [5]; rate 0.0313 kg/ha",0.0
same,Preemergence herbicidal rating AMBEL,"AMBEL (Ragweed, Common) [5]; rate 0.0625 kg/ha",0.0
same,Preemergence herbicidal rating AMBEL,"AMBEL (Ragweed, Common) [5]; rate 0.2500 kg/ha",5.0
same,Preemergence herbicidal rating AMBEL,"AMBEL (Ragweed, Common) [5]; rate 0.5000 kg/ha",9.0
same,Preemergence herbicidal rating CHEAL,[6]; rate 0.0313 kg/ha,9.0
same,Preemergence herbicidal rating CHEAL,[6]; rate 0.0625 kg/ha,9.0
same,Preemergence herbicidal rating CHEAL,[6]; rate 0.1250 kg/ha,9.0
same,Preemergence herbicidal rating CHEAL,[6]; rate 0.2500 kg/ha,9.0
same,Preemergence herbicidal rating CHEAL,[6]; rate 0.5000 kg/ha,9.0
same,herbicidal rating GLXMAW,[7]; rate 0.0156 kg/ha,5.0
same,herbicidal rating GLXMAW,[7]; rate 0.0313 kg/ha,5.5
same,herbicidal rating GLXMAW,[7]; rate 0.0625 kg/ha,7.5
same,herbicidal rating GLXMAW,[7]; rate 0.1250 kg/ha,9.0
same,"herbicidal effect rating, SAGPY",[8]; 0.0313 kg/ha,0.0
same,"herbicidal effect rating, SAGPY",[8]; 0.0625 kg/ha,0.0
same,"herbicidal effect rating, SAGPY",[8]; 0.1250 kg/ha,0.0
same,"herbicidal effect rating, SAGPY",[8]; 0.2500 kg/ha,3.0
same,Preemergence herbicidal rating CASOB,CASOB (Sicklepod) [9]; rate 0.0313 kg/ha,0.0
same,Preemergence herbicidal rating CASOB,CASOB (Sicklepod) [9]; rate 0.0625 kg/ha,0.0
same,Preemergence herbicidal rating CASOB,CASOB (Sicklepod) [9]; rate 0.1250 kg/ha,0.0
same,Preemergence herbicidal rating CASOB,CASOB (Sicklepod) [9]; rate 0.2500 kg/ha,2.0
same,Preemergence herbicidal rating CASOB,CASOB (Sicklepod) [9]; rate 0.5000 kg/ha,6.0
same,herbicidal rating CHEAL,[10]; rate 0.0156 kg/ha,4.0
same,herbicidal rating CHEAL,[10]; rate 0.0313 kg/ha,4.0
same,herbicidal rating CHEAL,[10]; rate 0.0625 kg/ha,9.0
same,herbicidal rating CHEAL,[10]; rate 0.1250 kg/ha,9.0
same,Preemergence herbicidal rating IPOHE,[11]; rate 0.0313 kg/ha,0.0
same,Preemergence herbicidal rating IPOHE,[11]; rate 0.0625 kg/ha,0.0
same,Preemergence herbicidal rating IPOHE,[11]; rate 0.1250 kg/ha,1.0
same,Preemergence herbicidal rating IPOHE,[11]; rate 0.2500 kg/ha,9.0
same,Preemergence herbicidal rating IPOHE,[11]; rate 0.5000 kg/ha,9.0
same,herbicidal rating CASOB,CASOB (Sicklepod) [12]; rate 0.0156 kg/ha,0.0
same,herbicidal rating CASOB,CASOB (Sicklepod) [12]; rate 0.0313 kg/ha,0.0
same,herbicidal rating CASOB,CASOB (Sicklepod) [12]; rate 0.0625 kg/ha,1.0
same,herbicidal rating CASOB,CASOB (Sicklepod) [12]; rate 0.1250 kg/ha,1.0
